Where two headings read alike, the source gives them in different places. Values belong to the compound of their own block, whether it stands above or below them.
What was measured:
[1] = cited from earlier work; for elimination half-life of 5-FU: Phase I
dogs = conditions: cited from earlier work
[2] = test system: mice, monkeys, cats, and dogs; conditions: in vivo; cited from earlier work
tumor [3] = conditions: tumor-bearing rats and tissue culture; cited from earlier work
cancer patients [4] = test: Clinical trial: 5 mg eniluracil followed 12-24 hours later by 5-FU, neurotoxicity; format: in vivo, human; conditions: then 30-160 mg 5-FU 12-24 hours later, 41 patients
Procedure: Therefore, a clinical trial was initiated wherein cancer patients were administered a 5 mg dose of eniluracil followed by 5-FU at a 30-160 mg dose 12-24 hours later. Unexpectedly, the majority of the 41 patients undergoing this treatment experienced some form of mild to severe neurotoxicity, with the main neurological symptoms being ataxia (an unsteady gait), neuropathy, confusion, dizziness, and slurred speech.
Based on this important finding, a clinical trial was initiated wherein cancer patients were administered a 5 mg dose of eniluracil, which was believed to be sufficient to systemically eliminate DPD activity in the patients. 5-FU was then administered 12-24 hours later at a dose of 30-160 mg. Unexpectedly, however, the majority of the 41 patients undergoing this treatment experienced some form of mild to severe neurotoxicity, with the main neurological symptoms being ataxia (an unsteady gait), neuropathy, confusion, dizziness, and slurred speech.
A clinical trial was initiated based on the important mechanistic findings described in WO 2006/060697. More specifically, cancer patients were administered a 5 mg dose of eniluracil and 12-24 hours thereafter were administered a 30-160 mg dose of 5-FU. […]

[5] = Calculated amount of eniluracil remaining in the body after 10.5 hours; set-up: species or system human; conditions: approximately three elimination half-lives
Procedure: The amounts of eniluracil shown in Table 1 below may be used achieve doses in the 16-20 mg/m^2 range. The calculated amount of eniluracil remaining in the body after 10.5 hours (approximately three elimination half-lives) is also presented. Thus, if the weekly and the 5-day dosing schedules employ doses of 5-FU ranging between about 15-50 mg/m^2, the ratio of eniluracil to 5-FU will always be less than about 1:6 when 5-FU is administered. For example, when the commonly used 25 mg/m^2 dose of 5-FU is administered 10.5 hours after eniluracil, the ratio of eniluracil to 5-FU will be about 1:10 or less.

patients = conditions: 20 mg eniluracil before 5-FU; 17 patients; cited from earlier work
DPD [6] = target: T1, DPD (Homo sapiens, UniProt Q12882); conditions: the two patients with neurotoxicity, 20 mg eniluracil (9.5 and 8.0 mg/m^2); cited from earlier work
T1 construct: eliminated greater than 90% of DPD in peripheral blood cells for prolonged periods; from tissue; host or cells: peripheral blood cells of cancer patients
T1 sequence (Q12882 4-1025): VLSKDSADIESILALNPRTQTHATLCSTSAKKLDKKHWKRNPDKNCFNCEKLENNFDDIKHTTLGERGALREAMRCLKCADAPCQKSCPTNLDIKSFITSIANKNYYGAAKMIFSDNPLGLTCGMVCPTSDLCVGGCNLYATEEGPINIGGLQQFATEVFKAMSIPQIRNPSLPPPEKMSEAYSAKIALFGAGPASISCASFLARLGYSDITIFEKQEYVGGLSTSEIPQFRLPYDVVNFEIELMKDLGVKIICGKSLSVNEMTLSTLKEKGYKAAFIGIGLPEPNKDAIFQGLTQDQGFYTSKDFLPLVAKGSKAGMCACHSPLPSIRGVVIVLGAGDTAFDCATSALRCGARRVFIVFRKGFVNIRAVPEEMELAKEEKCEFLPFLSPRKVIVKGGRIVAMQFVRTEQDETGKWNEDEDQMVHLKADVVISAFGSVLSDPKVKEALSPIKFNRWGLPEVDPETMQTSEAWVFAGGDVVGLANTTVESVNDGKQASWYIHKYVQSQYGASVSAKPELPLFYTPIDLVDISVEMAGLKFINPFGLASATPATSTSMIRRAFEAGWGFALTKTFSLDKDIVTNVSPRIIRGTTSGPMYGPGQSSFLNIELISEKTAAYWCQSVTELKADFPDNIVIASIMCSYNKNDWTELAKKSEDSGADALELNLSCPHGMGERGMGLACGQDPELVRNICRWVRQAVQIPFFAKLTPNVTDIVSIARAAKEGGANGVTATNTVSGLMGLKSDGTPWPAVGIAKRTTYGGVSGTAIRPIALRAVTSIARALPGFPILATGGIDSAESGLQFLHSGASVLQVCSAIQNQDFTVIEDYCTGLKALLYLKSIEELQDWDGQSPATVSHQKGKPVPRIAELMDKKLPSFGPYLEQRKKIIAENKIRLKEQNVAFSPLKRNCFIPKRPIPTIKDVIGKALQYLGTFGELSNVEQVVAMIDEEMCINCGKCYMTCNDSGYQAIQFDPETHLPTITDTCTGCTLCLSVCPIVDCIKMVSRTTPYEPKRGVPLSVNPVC

[7] = test system: patients with colorectal cancer; conditions: cited from earlier work
DPD [8] = target: T1, DPD; conditions: eniluracil 0.74 mg/m^2 (about 1 mg total), for prolonged periods; cited from earlier work
[9] = humans; cited from earlier work
cancer patients [10] = conditions: cited from earlier work
DPD [11] = target: T2, DPD (Rattus norvegicus, UniProt O89000); conditions: rats; spleen, intestinal mucosa, lung; cited from earlier work
T2 construct: from tissue; host or cells: rat brain, liver, spleen, intestinal mucosa, lung (in vivo dosing)
T2 sequence (O89000 1-1025): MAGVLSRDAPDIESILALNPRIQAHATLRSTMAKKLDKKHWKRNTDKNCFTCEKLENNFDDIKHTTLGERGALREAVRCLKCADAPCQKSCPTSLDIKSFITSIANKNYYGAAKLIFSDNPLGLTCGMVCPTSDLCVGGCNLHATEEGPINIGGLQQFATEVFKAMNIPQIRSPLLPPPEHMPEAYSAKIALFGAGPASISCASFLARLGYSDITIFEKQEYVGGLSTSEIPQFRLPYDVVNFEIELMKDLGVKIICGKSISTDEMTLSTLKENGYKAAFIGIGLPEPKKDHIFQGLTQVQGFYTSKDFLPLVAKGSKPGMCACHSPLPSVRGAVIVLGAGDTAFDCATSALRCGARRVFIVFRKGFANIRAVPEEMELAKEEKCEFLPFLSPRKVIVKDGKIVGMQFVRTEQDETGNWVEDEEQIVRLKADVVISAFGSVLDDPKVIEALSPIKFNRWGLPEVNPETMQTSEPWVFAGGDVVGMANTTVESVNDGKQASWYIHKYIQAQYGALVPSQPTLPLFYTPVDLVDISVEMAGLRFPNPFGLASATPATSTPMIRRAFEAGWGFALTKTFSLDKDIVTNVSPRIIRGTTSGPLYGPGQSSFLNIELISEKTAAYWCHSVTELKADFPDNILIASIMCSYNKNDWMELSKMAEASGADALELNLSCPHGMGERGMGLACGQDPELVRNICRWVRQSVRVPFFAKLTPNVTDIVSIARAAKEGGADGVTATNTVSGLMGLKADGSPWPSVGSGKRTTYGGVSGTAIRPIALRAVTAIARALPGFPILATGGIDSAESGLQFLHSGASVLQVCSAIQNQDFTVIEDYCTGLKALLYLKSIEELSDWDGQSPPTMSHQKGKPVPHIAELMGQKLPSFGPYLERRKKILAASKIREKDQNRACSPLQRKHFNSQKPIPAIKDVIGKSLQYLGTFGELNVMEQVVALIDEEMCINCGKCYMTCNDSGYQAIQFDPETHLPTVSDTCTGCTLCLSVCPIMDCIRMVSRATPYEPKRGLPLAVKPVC

tumors = conditions: eniluracil with 5-FU, laboratory animals bearing tumors; cited from earlier work
tumor [12] = conditions: excess eniluracil present at the time 5-FU is administered; cited from earlier work

SMILES: O=c1[nH]cc(F)c(=O)[nH]1 [5-FU, 5-Fluorouracil]
- elimination half-life of 5-FU ([1]; after one dose of eniluracil): 3.5 h
- half-life of 5-FU ([1]; eniluracil 3.7 mg/m^2): 4.5 to 6.5 h
- 5-FU elimination half-life ([1]; with eniluracil): 4.5 to 6.5 h
- elimination half-life of 5-FU ([1]; without eniluracil): about 10 minutes
- 5-FU elimination half-life ([1]; without eniluracil): 0.167 to 0.333 h
- neurotoxicity (dogs; intravenous 5-FU alone, only low blood levels of 5-FU): induced seizures, muscle tremors, and ataxia

SMILES: NCC(F)C(=O)O (stereo not drawn) [F-Bal, α-fluoro-β-alanine]
- neurotoxicity [2]: can cause neurotoxicity

SMILES: Nc1nc2c(c(=O)[nH]1)N(C=O)C(CNc1ccc(C(=O)N[C@@H](CCC(=O)O)C(=O)O)cc1)CN2 (stereo partly shown) [Leucovorin]
- antitumor efficacy of eniluracil and 5-FU (tumor [3]): improve the antitumor efficacy

- Estimated Amount of Eniluracil remaining 10.5 hr after dosing ([5]; eniluracil dose 25 mg): 3.1 mg
- Estimated Amount of Eniluracil remaining 10.5 hr after dosing ([5]; eniluracil dose 30 mg): 3.8 mg
- Estimated Amount of Eniluracil remaining 10.5 hr after dosing ([5]; eniluracil dose 40 mg): 5.0 mg
- Estimated Amount of Eniluracil remaining 10.5 hr after dosing ([5]; eniluracil dose 50 mg): 6.3 mg
SMILES: C#Cc1c[nH]c(=O)[nH]c1=O [eniluracil, 5-ethynyluracil]
- patients experiencing some form of mild to severe neurotoxicity (cancer patients [4]): majority
- incidence of neurotoxicity (patients): 12%
- DPD in peripheral blood cells (DPD [6]): completely inactivated
- antitumor benefit versus standard regimen of 5-FU/leucovorin ([7]; 10 mg/m^2 eniluracil and 1 mg/m^2 5-FU every 12 hr for 28 days, North American trial): less antitumor benefit
- total incidence of severe neurotoxicity ([7]; eniluracil about 11.5 mg/m^2 every 12 hours): 6%
- DPD eliminated in peripheral blood cells (DPD [8]): greater than 90%
- elimination half-life for eniluracil [9]: about 3.5 hours
- toxicity (cancer patients [10]; Phase I clinical trials in cancer patients): without causing toxicity
- safety (cancer patients [10]; doses up to 50 mg per day for seven days): safe
- neurotoxicity (dogs; dogs pretreated with eniluracil, high blood levels of 5-FU): without any neurotoxicity
- dose required to inactivate 50% of DPD in brain relative to liver and other non-nervous tissues (DPD [11]): approximately six-fold
- antitumor efficacy of 5-FU (tumors): significantly improved
- antitumor activity of 5-FU (tumor [12]): significantly diminished
